Molecules are shown by their SMILES. Structures can show the parent of a compound that is named as a salt.

For test [1], the system named is SB.mhdgc-1. The experiment in a line: area under the dose-response curve of % viability (trapezoidal, 11 doses) (% viability x log10 concentration); higher = less cytotoxic. Particulars: SB.mhdgc-1 (hereditary c.1380delA CDH1 gastric cancer). The procedure, abridged:
(§1)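 Viability values are normalised to DMSO and given either at the highest concentration or as trapezoidal area under the curve. The assay used 500 hereditary or sporadic patient-derived gastric cancer cells in 5 μL medium per 1536 well, dosed by pintool with 23 nL of compound in DMSO at 11 threefold-diluted concentrations. CellTiter-Glo was added 48 h later for 30 min at room temperature, followed by luminescence reading on a ViewLux.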

The test system of test [2] is SB.msgc-1. The description is as above. The following applies: SB.msgc-1 (sporadic gastric cancer). The procedure, abridged: as §1
For test [3], the system named is SB.mhdgc-1. The experiment in a line: viability at highest tested concentration (MAXR) relative to DMSO; higher = less cytotoxic. Particulars: SB.mhdgc-1 (hereditary c.1380delA CDH1 gastric cancer). The procedure, abridged: as §1
Test [4] deals with SB.msgc-1. Described as above. Particulars: SB.msgc-1 (sporadic gastric cancer). The procedure, abridged:
as §1

Consider `C=CCO/N=C(/C[C@H]1O[C@@H]2O[C@]3(C)CC[C@H]4[C@H](C)CC[C@@H]([C@H]1C)[C@@]24OO3)[C@H]1O[C@@H]2O[C@]3(C)CC[C@H]4[C@H](C)CC[C@@H]([C@H]1C)[C@@]24OO3` [BTM-2C-dimer allyl oxime] (top concentration 46.0829 µM), for which the results for the “area under the dose-response curve” value with SB.mhdgc-1 [1] and in the test on SB.msgc-1 [2] were 376 and 488, respectively. The viability (as a rule, a read-out of living cells in per cent, often relative to untreated cells) in the test on SB.mhdgc-1 [3] was 11%; in the test on SB.msgc-1 [4] it was 60.3%.
Take `NC(=O)Cc1cccc(C(=O)c2ccccc2)c1N` [Nepafenac] (top concentration 46.0829 µM): the “area under the dose-response curve” value is 566 with SB.mhdgc-1 [1] and 478 in the test on SB.msgc-1 [2]. For the same compound, the viability was determined as 116% in the test on SB.mhdgc-1 [3] and 85.9% in the test on SB.msgc-1 [4].
For `NC(=O)c1noc([C@H](CCCC2CCCCC2)CC(=O)NO)n1` (top concentration 46.0829 µM), the “area under the dose-response curve” value worked out at 570 with SB.mhdgc-1 [1] and 563 in the test on SB.msgc-1 [2]. The viability with SB.mhdgc-1 [3] is 41%; in the test with SB.msgc-1 [4], 69.5%.
In the case of `C=CC(=O)Nc1cc2c(Nc3ccc(F)c(Cl)c3)ncnc2cc1OCCCN1CCOCC1` [Canertinib] (top concentration 46.0829 µM), the “area under the dose-response curve” value in the test on SB.mhdgc-1 [1] is 496; in the test on SB.msgc-1 [2], 271. In addition, the values for the viability in the test with SB.mhdgc-1 [3] and with SB.msgc-1 [4] were 2.07% and 0.659%, respectively.
For the compound `Cc1cc(SCc2sc(-c3ccc(C(F)(F)F)c(F)c3)nc2C)ccc1OCC(=O)O` [GW-0742] (top concentration 46.0829 µM), the “area under the dose-response curve” value with SB.mhdgc-1 [1] stood at 574; with SB.msgc-1 [2] it was 350. The viability in the test with SB.mhdgc-1 [3] turned out to be 102%; in the test on SB.msgc-1 [4], 37.2%.
On the same counts, the results for `CCCC1OC2C[C@H]3[C@@H]4CCC5=CC(=O)C=C[C@]5(C)[C@H]4C(O)C[C@]3(C)[C@]2(C(=O)CO)O1` (some centres undefined) [Budesonide] (top concentration 46.0829 µM) are 512, 552, 78.6% and 62.9%.
Consider `O=C(O)c1cccnc1` [Niacin] (top concentration 46.0829 µM), for which the “area under the dose-response curve” value with SB.mhdgc-1 [1] turned out to be 521; with SB.msgc-1 [2] it was 487. For the same compound, the viability in the test with SB.mhdgc-1 [3] amounted to 74.1%; in the test on SB.msgc-1 [4], 82.7%.
Regarding `CN[C@H]1CCC2=CC(=C(OC)C(=C2C/3=C/C=C(OC)\C(=O)/C=C13)OC)OC` [Demecolcine] (top concentration 46.0829 µM), the “area under the dose-response curve” value in the test on SB.mhdgc-1 [1] amounted to 278; in the test with SB.msgc-1 [2], 246. Further, the viability in the test with SB.mhdgc-1 [3] stood at 33.3%; with SB.msgc-1 [4], 40%.
Regarding `COc1cccc([C@@H](C)NCCCc2ccccc2Cl)c1` [NPS R568] (top concentration 46.0829 µM), the “area under the dose-response curve” value with SB.mhdgc-1 [1] was 525; with SB.msgc-1 [2], 320. The viability with SB.mhdgc-1 [3] worked out at 74.4%; with SB.msgc-1 [4], 22%.
On the same counts, the results for `CC(C)c1cc(C(=O)N2Cc3ccc(CN4CCN(C)CC4)cc3C2)c(O)cc1O` (top concentration 46.0829 µM) are 443, 348, 9.31% and 43%.
For `Cc1cccc(-c2[nH]c(C(C)(C)C)nc2-c2ccc3nccnc3c2)n1` (top concentration 46.0829 µM), in that order: 530, 486, 23.1% and 62%.
For the compound `Cc1c(N)nc([C@H](CC(N)=O)NC[C@@H](N)C(N)=O)nc1C(=O)N[C@H](C(=O)N[C@@H](C)[C@H](O)[C@@H](C)C(=O)N[C@@H](C(=O)NCCc1nc(-c2nc(C(=O)NCCC[S+](C)C)cs2)cs1)[C@@H](C)O)C(O[C@H]1O[C@H](CO)[C@H](O)[C@@H](O)[C@H]1O[C@H]1O[C@H](CO)[C@@H](O)[C@H](OC(N)=O)[C@@H]1O)c1c[nH]cn1` (some centres undefined) [Bleomycin sulfate] (top concentration 46.0829 µM), the “area under the dose-response curve” value in the test with SB.mhdgc-1 [1] worked out at 451; in the test with SB.msgc-1 [2], 425. The results for the viability with SB.mhdgc-1 [3] and in the test on SB.msgc-1 [4] were 49.9% and 55.3%, respectively.
As for `CC(C)c1cnn2c(NCc3ccccc3)cc(N[C@@H](CO)[C@H](O)CO)nc12` [BS-194] (top concentration 46.0829 µM), the “area under the dose-response curve” value with SB.mhdgc-1 [1] was found to be 428; in the test on SB.msgc-1 [2] it was 389. Also, the viability with SB.mhdgc-1 [3] is 57.3%; with SB.msgc-1 [4], 34%.
`CN(C)[C@H]\1[C@@H]2[C@@H](O)[C@H]3\C(=C(O)/[C@]2(O)C(=O)\C(=C1O)C(N)=O)C(=O)C4=C(C=CC=C4O)[C@@]3(C)O` [Oxytetracycline] (top concentration 46.0829 µM): the “area under the dose-response curve” value in the test with SB.mhdgc-1 [1] stood at 588; with SB.msgc-1 [2], 539. Also, the viability in the test on SB.mhdgc-1 [3] turned out to be 141%; in the test with SB.msgc-1 [4], 82.9%.
As for `CCCC1=NC(=C2[N]1NC(=N\C2=O)/C3=CC(=CC=C3OCC)[S+]([O-])(=O)N4CCN(CC)CC4)C` [Vardenafil] (top concentration 46.0829 µM), the “area under the dose-response curve” value in the test with SB.mhdgc-1 [1] was determined as 504; with SB.msgc-1 [2] it was 437. Besides, the viability in the test with SB.mhdgc-1 [3] is 29.8%; in the test on SB.msgc-1 [4] it was 7.86%.
For the compound `COc1cc(Nc2c(C#N)cnc3cc(OCCCN4CCN(C)CC4)c(OC)cc23)c(Cl)cc1Cl` [Bosutinib] (top concentration 46.0829 µM), the figures for the “area under the dose-response curve” value in the test with SB.mhdgc-1 [1] and in the test on SB.msgc-1 [2] were 494 and 441, respectively. Moreover, the viability with SB.mhdgc-1 [3] was 15.6%; in the test with SB.msgc-1 [4], 36.6%.
In the case of `N[C@@H](Cc1ccc(O)c(O)c1)C(=O)O` [Levodopa] (top concentration 46.0829 µM), the “area under the dose-response curve” value with SB.mhdgc-1 [1] was 583; in the test with SB.msgc-1 [2], 571. Further, the viability with SB.mhdgc-1 [3] came to 118%; in the test with SB.msgc-1 [4] it was 116%.
On the same counts, the results for `O=C(NC1CCOCC1)c1ccc(-c2cc(-c3c[nH]nc3-c3ccccn3)ccn2)cc1` (top concentration 46.0829 µM) are 603, 531, 116% and 90.7%.
Turning to `ClC1=CC\2=C(NC(=O)\C(=C2N[C@@H]3CN4CCC3CC4)C5=NC6=C([NH]5)C=CC=C6)C=C1` [CHIR-124] (top concentration 46.0829 µM), the results for the “area under the dose-response curve” value with SB.mhdgc-1 [1] and in the test on SB.msgc-1 [2] were 340 and 355, respectively. The viability is 5.59% in the test on SB.mhdgc-1 [3] and 13.9% with SB.msgc-1 [4].
`CN(C)CCCNC(=O)c1ccc(-c2cc(O)c3ncccc3c2)cc1` (top concentration 46.0829 µM): the results for the “area under the dose-response curve” value in the test with SB.mhdgc-1 [1] and in the test on SB.msgc-1 [2] were 545 and 528, respectively. Besides, the viability in the test on SB.mhdgc-1 [3] worked out at 24.3%; with SB.msgc-1 [4], 90.9%.
For `Cc1nn(Cc2ccccc2Cl)c(C)c1CN(C)CC(O)COc1ccc(Cl)cc1` (centres undefined) (top concentration 46.0829 µM), the “area under the dose-response curve” value is 519 in the test with SB.mhdgc-1 [1] and 529 in the test with SB.msgc-1 [2]. For the same compound, the viability in the test with SB.mhdgc-1 [3] amounted to 4.77%; in the test on SB.msgc-1 [4], 58.7%.
On the same counts, the results for `NC(=O)c1cnc(-c2ccc(C3(N)CCC3)cc2)c(-c2ccccc2)c1` [AZD-26] (top concentration 46.0829 µM) are 410, 484, 20.5% and 80.2%.
For the compound `CC1(C)O[C@@H]2C[C@H]3[C@@H]4CCC5=CC(=O)C=C[C@]5(C)[C@H]4[C@@H](O)C[C@]3(C)[C@]2(C(=O)CO)O1` [Desonide] (top concentration 46.0829 µM), the “area under the dose-response curve” value is 508 in the test on SB.mhdgc-1 [1] and 523 in the test with SB.msgc-1 [2]. Also, the viability with SB.mhdgc-1 [3] came out at 111%; in the test with SB.msgc-1 [4], 108%.
For `C=CC(=O)Nc1cccc(Oc2nc(Nc3ccc(N4CCN(C)CC4)cc3)ncc2Cl)c1` [WZ-3146] (top concentration 46.0829 µM), in that order: 391, 276, 3.3% and 1.38%.
For `CC1(C)C(N(O)C(=O)Nc2ccc(Cl)cc2)N(c2ccc(Cl)cc2)C(=O)N1CC(=O)N/N=C/C=C/c1ccc([N+](=O)[O-])o1` (centres undefined) [Eeyarestatin I] (top concentration 46.0829 µM), the “area under the dose-response curve” value in the test on SB.mhdgc-1 [1] was found to be 506; in the test on SB.msgc-1 [2], 459. Moreover, the viability is 1.97% in the test with SB.mhdgc-1 [3] and 1.63% with SB.msgc-1 [4].
Regarding `COC(=O)N[C@H](C(=O)N1CCC[C@H]1c1ncc(-c2ccc(-c3ccc(-c4cnc([C@@H]5CCCN5C(=O)[C@@H](NC(=O)OC)C(C)C)[nH]4)cc3)cc2)[nH]1)C(C)C` [Daclatasvir dihydrochloride] (top concentration 46.0829 µM), the “area under the dose-response curve” value was 488 in the test on SB.mhdgc-1 [1] and 541 in the test on SB.msgc-1 [2]. Moreover, the viability in the test with SB.mhdgc-1 [3] is 3.05%; in the test on SB.msgc-1 [4], 4.16%.
For the compound `COc1cc2c(Oc3ccc(NC(=O)C4(C(=O)Nc5ccc(F)cc5)CC4)cc3F)ccnc2cc1OCCCN1CCOCC1` [Foretinib] (top concentration 46.0829 µM), the “area under the dose-response curve” value was found to be 386 in the test with SB.mhdgc-1 [1] and 397 in the test on SB.msgc-1 [2]. Also, the viability worked out at 2.84% in the test with SB.mhdgc-1 [3] and 0.558% with SB.msgc-1 [4].
As for `O=C(O)CCC1CCC(c2cc(F)ccc2F)([S+](=O)([O-])c2ccc(Cl)cc2)CC1` (centres undefined) [MK-0752] (top concentration 46.0829 µM), the “area under the dose-response curve” value with SB.mhdgc-1 [1] was found to be 435; in the test on SB.msgc-1 [2] it was 479. Moreover, the viability was determined as 78.9% in the test on SB.mhdgc-1 [3] and 58.6% in the test with SB.msgc-1 [4].
`CC#CCn1c(N2CCC[C@@H](N)C2)nc2c1c(=O)n(Cc1nc(C)c3ccccc3n1)c(=O)n2C` [Linagliptin] (top concentration 46.0829 µM): the “area under the dose-response curve” value in the test with SB.mhdgc-1 [1] turned out to be 564; in the test with SB.msgc-1 [2], 528. The viability in the test with SB.mhdgc-1 [3] is 57.7%; in the test on SB.msgc-1 [4], 77.9%.
With `CO[C@H]1/C=C\C=C(\C)C(=O)NC2=CC(=O)C(NCCN(C)C)=C(C[C@@H](C)C[C@H](OC)[C@H](O)[C@@H](C)/C=C(/C)[C@@H]1OC(N)=O)C2=O` [Alvespimycin hydrochloride] (top concentration 46.0829 µM), the “area under the dose-response curve” value in the test on SB.mhdgc-1 [1] is 271; in the test with SB.msgc-1 [2], 243. Also, the viability with SB.mhdgc-1 [3] came to 2.07%; with SB.msgc-1 [4] it was 2.01%.
On the same counts, the results for `C[C@@H]1C[C@H]2[C@@H]3\C=C(C)/C4=C/C5=C(C[C@]4(C)[C@H]3[C@@H](O)C[C@]2(C)[C@@]1(O)C(=O)CO)C=N[N]5C6=CC=CC=C6` [Deacetyl cortivazol] (top concentration 46.0829 µM) are 391, 508, 20.9% and 27.5%.

(Values after the supplement of paper PMC5412046.)
